Laboratory results reported in patent publication US12440582B2, “Biothiol-activatable probe and method of use” (BOARD OF REGENTS, THE UNIVERSITY OF TEXAS SYSTEM, priority 2019, dated 2025).
Where a name gives a salt, the structure may show the parent alone. Each block holds one compound with its values, some of them ahead of it.

Legend:
[1] = system: APAP-induced liver injury; test: NAC treatment of APAP-induced liver injury (liver morphology, TUNEL); type: in vivo, mice
Experimental: FIGS. 44A-D. Monitoring hepatic GSH depletion in drug-induced liver injury allows early treatment and improves prognosis. (FIG. 44A) Scheme of the APAP metabolism and pathophysiology process of APAP overdose induced hepatotoxicity. Hepatic GSH depletion occurs much earlier than the death of hepatocytes and the release of serum biomarkers. (FIG. 44B) Serum ALT levels of mice (N=3) at multiple time points after receiving 300 mg/kg body weight APAP. […] (FIG. 44C) Serum ALT levels of mice (N=3) at 12 h post injection of overdose APAP with NAC treatment at different time points after APAP administration. (FIG. 44D) Representative color pictures of the liver (12 h after APAP administration) as well as fluorescent microscope images of cell death in liver tissues (detected using TUNEL assay) from APAP overdosed mice without NAC treatment or receiving NAC treatment at 30 min (early treatment) and 5.5 h (delayed treatment) after APAP administration. Cell nuclei were counter-stained with DAPI. Scale bar, 20 μm. Statistical significance is evaluated by two-sample equal variance t-test (P<0.05; statistically significant). Data points are presented as means and standard deviation.
APAP-induced liver injury animal model. Healthy male BALB/c mice were pre-fasted for 5 h and then intraperitoneally injected with APAP saline solution (˜28 mg/mL) at an overdose of 300 mg/kg body weight. […]

liver GSH = test: Liver GSH level measured ex vivo (Tietze enzymatic recycling assay); type: in vivo, BALB/c mice; conditions: for hepatic GSH level: 30 min p.i.
serum GSH = test: Serum GSH level following APAP administration; type: in vivo, mice; conditions: 2 h after APAP 300 mg/kg i.p.
Experimental: FIG. 54. Serum GSH level following APAP administration. […] Data reported are means and standard deviation overlapped with data points from individual mouse. Statistical significance is evaluated by two-sample equal variance t-test. P<0.05 is considered statistically significant. N=4 mice for the experiment.

[2] = in vivo
Description: FIGS. 39A-E. Utilization of hepatic glutathione-mediated biotransformation to enhance tumor targeting of a cisplatin prodrug. (FIG. 39A) Scheme illustrating the rationale of designing the ICG-Cis-Pt prodrug by combining temporal serum protein binding and hepatic glutathione-mediated biotransformation to slow down the rapid renal clearance of Cis-Pt prodrug and enhance its tumor targeting efficiency while avoiding predominant accumulation in MPS. […] (FIG. 39C) Tumor targeting efficiency of Cis-Pt pro drug and ICG-Cis-Pt prodrug at 48 hr p.i. (FIG. 39D) Renal clearance profiles of Cis-Pt prodrug and ICG-Cis-Pt prodrug. […] (FIG. 39E) Biodistribution of Pt in organs at 48 hr and 7 day following intravenously injection of ICG-Cis-Pt prodrug. The accumulation of ICG-Cis-Pt in MPS as well as in other major organs is low and continues to decrease over time. Statistical significance is evaluated by two-sample t-test (**p<0.01).

plasma GSH = test: Plasma glutathione level after DEM administration; type: in vivo, BALB/c mice
Experimental: FIGS. 21A-B. Plasma glutathione level after DEM administration. (FIG. 21A) Plasma total glutathione (reduced GSH+2GSSG) and glutathione disulfide (GSSG) concentration at various time points after intraperitoneal injection of 1 mL/kg DEM in mice (n=3). (FIG. 21B) Plasma reduced glutathione concentration at different time was then calculated by subtracting GSSG from the total GSH concentration. The quantification of plasma total GSH and GSSG was carried out according to the established procedures (Rahman et al., 2006) via a modified Tietze enzymatic recycling assay.
Depletion of tissue GSH in vivo.

[3] = Tumor targeting efficiency in MCF-7 xenograft mice; type: in vivo; conditions: nude, mouse, tumor (MCF-7 xenograft), intravenous, 24 hr p.i., read-out: tumor targeting efficiency (ICG)
Description: Blue arrows indicate the tumors.

in vivo = conditions: nude, mouse, in vivo
Description: (§1) FIGS. 30A-B. Decay of background tissue fluorescence signal over time. (FIG. 30A) Representative in vivo imaging of 1CG4-GS-Au25 injected mouse (72 hr p.i.) illustrating the region of interest (ROI) chosen for tumor (red dashed circle) and background tissue (yellow dashed circle) ICG fluorescence quantification. Red arrows indicate tumor location.

MCF-7 tumor = test: in vivo; conditions: MCF-7 tumor bearing nude mice
Description: as §1

[4] = Blood pharmacokinetics after intravenous injection; conditions: i.v.
Experimental: Statistical significance is evaluated using a two-sample unequal variances (Welch's) t-test (**P<0.01, ***P<0.005). Data points are reported as mean±s.d.
Both curves were fitted with two-phase exponential decay functions to obtain the weighted average half-lives.
Pharmacokinetics and biodistribution study of 1CG4-GS-Au25. […] At certain time point post-injection, blood sample (˜30 μL) was retro-orbitally collected and weighed, followed by the addition of 500 μL lysis buffer containing 20 mM cysteine (pH˜8) to liberate ICG from Au25 nanocluster and recover the quenched fluorescence of ICG. Then fluorescence of cysteine treated blood sample was measured by the in vivo imaging system to quantify ICG in blood. Afterwards, the blood sample was completely dissolved in freshly made aqua regia and the Au amount in blood was analyzed by ICP-MS.

SMILES: CC(=O)N[C@@H](CS)C(=O)O [NAC, N-acetylcysteine]
- effect on liver damage (morphology, TUNEL) ([1]; NAC at 30 min post-injection of APAP (early treatment)): almost completely reverse the liver damage
- effect on liver damage (morphology, TUNEL) ([1]; NAC at 5.5 h after APAP overdose (delayed treatment)): severe hemorrhage on the liver tissue as well as the pervasive death of liver cells

SMILES: CC(=O)Nc1ccc(O)cc1 [APAP, acetaminophen]
- hepatic GSH level of overdosed mice, of that of the control mice (liver GSH; APAP 300 mg/kg): ~36%
- hepatic GSH level (liver GSH; APAP normal dose 60 mg/kg): 6.6±0.8 μmole/g tissue
- hepatic GSH level (liver GSH; APAP overdose 300 mg/kg): 2.1±1.2 μmole/g tissue
- serum GSH level (serum GSH): didn't change significantly

SMILES: CCOC(=O)/C=C\C(=O)OCC [DEM, diethyl maleate]
- duration of low plasma GSH level before recovery (plasma GSH; single injection of DEM): 2 to 3 h
- plasma GSH level, of the initial value (plasma GSH; single intraperitoneal injection of DEM, 1 mL/kg): ~12%
- liver GSH level (liver GSH; 0.3 mg/kg body weight DEM, intraperitoneal): ~3.1 μmole/g liver tissue
- liver GSH level (liver GSH; 0.6 mg/kg body weight DEM, intraperitoneal): ~0.6 μmole/g liver tissue

Further lines, with some results ahead:

- liver GSH level (liver GSH; 0.5 h after CPZ 100 mg/kg i.p.): decrease in hepatic GSH level
SMILES: CN(C)CCCN1c2ccccc2Sc2ccc(Cl)cc21 [CPZ, chlorpromazine]

- AUC (blood retention) [2]: 7.4±0.2 % ID/g×h
SMILES: [NH2][Pt]([NH2])([OH])([Cl])([Cl])[O]C(=O)CCC(=O)O [Cis-Pt prodrug, cis,cis,trans-[Pt(NH3)2Cl2(OH)(O2CCH2CH2COOH)]]

- tissue uptake at 24 h [3]: ~0.15 %ID/g
- half-life (in vivo; half-life of ICG retention (fluorescence decay) in tumor): ~3.8 h
- half-life (in vivo; half-life of ICG signal in background tissues): 3.5 h
- ICG blood retention (AUC) [4]: ~1.9 h×% ID/g
SMILES: CC1(C)C(/C=C/C=C/C=C/C=C2\N(CCCCS(=O)(=O)O)c3ccc4ccccc4c3C2(C)C)=[N+](CCCCS(=O)(=O)[O-])c2ccc3ccccc3c21 [free ICG, indocyanine green]
- maximum tumor contrast index (CI) (MCF-7 tumor): 1.8
